Measurements reported in patent US20080070851A1, “METHOD FOR THE EXTRACTION OF […] ACTIVE PRODUCTS FROM SPERMATOPHYTE PLANTS, PRODUCTS THUS OBTAINED AND THEIR USE IN THE MEDICAL FIELD, IN […] AS SUBSTANCES WITH IMMUNOMODULATING ACTIVITY” (Institudo Agrario Di S. Michele All'Adige, priority 2000, published 2008).

Legend:
[1] = stability of the active agent in culture medium (HPLC quantification); assay type: physicochemical; conditions: for halving time in culture medium: culture medium of ex. 10; for amount still present at the end of the test: culture medium of ex. 10, 72 h
From the text: The instrumental conditions are the same as those described above for viniferine. The coefficient of molar extinction of both glucosides is almost the same as the one of the corresponding aglycones, so that they can be added as such after carrying out a correction for molecular weights (Mattivi et al. Isolation, characterization, and evolution in red wine vinification of resveratrol monomers, J. Agric. Food Chem., 1995, 43, 7, 1820-1823).
Zeitschdift fur Lebensmittel-Untersuchung und Forschung, 1993, 196, 522-525. In addition to what is contained in the aforesaid document, it has been verified that the method is suitable for all monomer stilbenes, both free and glucosides, and that the eluted fraction of ethyl acetate can be dried under a light flow of nitrogen, in case it is necessary to carry out the exchange in another solvent and/or to further reduce the limits of quantification.
Said techniques can be used for instance to control the stability of the active agent in culture mediums, and therefore to support in vitro experimental models which are going to be described in the following examples. For instance, the culture for means described in ex.

[2] = test system: CD8+ T cells activated with anti-CD3/CD28; assay: cytofluorometric analysis of intracytoplasmatic cytokine levels, CD8+ T cells; assay type: cell-based, human
From the text: (§1) Mononucleated cells of human peripheral blood (PBMC) deriving from healthy subjects have been obtained by separation on gradient (Ficoll-Hypaque) of cells deriving from buffy coat.
(§2) In vitro production of cytokines induced by activation with monoclonal anti-CD3 antibody carried out by the various T cell underpopulations in PBMC has been evaluated by means of a simultaneous cytofluorometric determination of the intracytoplasmatic cytokine content and of the expression of surface antigens in every single cell. By using said method it has been possible to evaluate the production of cytokines by single cell under-populations without previously physically separating them, and therefore in presence of the interactions in the production of cytokines which take place in physiological systems. The execution of said method is made possible by the use of saponin as reversible permeabilizing agent of cell membrane. In short, PBMC have been resuspended in a concentration of 1×10^6/ml, activated by treatment with anti-CD3 (10 ng/ml) and incubated with various doses of resveratrol. After 3 days of culture at 37° C. in a CO2 incubator, the cells have been treated with anti-CD28 (2 ng/ml) and with resveratrol in the same doses previously used. After further 3 days of treatment, the cells have been incubated with a fluorescent monoclonal antibody specific for a surface antigen (CD4 or CD8), resuspended in a medium with the addition of 0.3% saponin, and marked with an optimal dose of a mixture of anti-cytokine monoclonal antibodies conjugated with various fluorochromes. The samples thus treated have then undergone cytofluorometric analysis using a cytofluorometer FACscan (BD).
Mononucleated cells of human peripheral blood (PBMC) have been activated by incubation with anti-CD3+ anti-CD28 and then incubated with different doses of resveratrol (or DMSO as control) as described above. Non-activated cells deriving from the same buffy coat have been used as control. The percentage of T lymphocytes CD4+ and CD8+ positive for IL2, IL4 and IFN-γ has then been analyzed by means of flow cytofluorometry. […] The activity peak varies according to the examined cytokine, and precisely: 1.25-2.5 for IFN-γ (FIG. 1A), 0.625 for IL2 (FIG. 1B) and 2.5 for IL4 (FIG. 1C).

[3] = test system: CD4+ T cells activated with anti-CD3/CD28; assay: cytofluorometric analysis of intracytoplasmatic cytokine levels, CD4+ T cells; assay type: cell-based, human
From the text: as §1, §2
Mononucleated cells of human peripheral blood (PBMC) have been activated by incubation with anti-CD3+ anti-CD28 and then incubated with different doses of resveratrol (or DMSO as control) as described above. Non-activated cells deriving from the same buffy coat have been used as control. The percentage of T lymphocytes CD4+ and CD8+ positive for IL2, IL4 and IFN-γ has then been analyzed by means of flow cytofluorometry. […]

[4] = test system: lymphocytes activated with anti-CD3/CD28; assay: cell proliferation (Coulter count) and DNA synthesis (BrdU incorporation); assay type: cell-based, human
From the text: (§3) Mononucleated cells of human peripheral blood (PBMC) deriving from healthy subjects have been obtained by separation on gradient (Ficoll-Hypaque) of cells deriving from buffy coat. Cell replication has been evaluated by a cellular count carried out using a Coulter Counter. DNA synthesis has been measured by the test of incorporation of bromodeoxyuridine (BrdU) evaluated by flow cytometry using a cytometer FACscan (Becton-Dickinson). Mononucleated cells of human peripheral blood (PBMC) have been activated by incubation with anti-CD3+ anti-CD28 and then incubated with different doses of resveratrol (or DMSO as control) as described above. Non-activated cells deriving from the same buffy coat have been used as control.

[5] = test system: lymphocytes activated with anti-CD3/CD28; assay: apoptosis of activated lymphocytes; assay type: cell-based, human
From the text: as §1
PBMC resuspended in a concentration of 1×10^6/ml have been fixed in acetone/methanol 1:4, treated with 100 KU/ml of RNase and marked with propydium iodide (50 mcg/ml). The cells have then been analyzed by means of flow cytofluorometry using a cytometer FACscan.
PBMC resuspended in a concentration of 1×10^6/ml have been fixed in 4% paraformaldehyde, treated with 100 KU/ml of RNase and marked with propydium iodide. The cells have then been analyzed by means of observation with a confocal microscope (LEIKA TCS 4D).
Mononucleated cells of human peripheral blood (PBMC) have been activated by incubation with anti-CD3+ anti-CD28 and then incubated with different doses of resveratrol (or DMSO as control) as described above. Non-activated cells deriving from the same buffy coat have been used as control.

[6] = test system: lymphocytes activated with anti-CD3/CD28; assay: cell mortality of activated lymphocytes; assay type: cell-based, human
Experimental: as §3, with “mortality” for “replication”, “in trypan blue and/or” for “carried out using a Coulter Counter. DNA synthesis has been measured by the test of incorporation of bromodeoxyuridine (BrdU) evaluated”, “(Becton-Dickinson), determining the vitality of unfixed cells which have been marked with propydium iodide (PI).” for “(Becton-Dickinson).”

[7] = test system: human erythroleukemic line K 562; assay: natural killer (NK) activity of PBMC, 51Cr release; assay type: cell-based; conditions: 18 h incubation
Experimental: as §1
PBMC in a concentration of 2×10^6 cells/ml have been treated in vitro with different doses of resveratrol for 18 h. At the end of the incubation the cells have been tested for their natural cytotoxic activity (NK) against the human erythroleukemic line K 562. The cytotoxic activity of the effect-producing cells incubated for 4 hours at 37° C. with K562 has been determined using a cytotoxicity standard test based on the release of ^51Cr by target cells.
(§4) Mononucleated cells of human peripheral blood (PBMC) have been incubated for 18 h with resveratrol in a concentration of 0.625, 1.25, 2.5, 5, 10 and 20 mcg/ml. At the end of the incubation the cells have been tested for their natural cytotoxic activity (NK) against the human erythroleukemic line K 562. […] On the contrary, at doses of 10 and 20 mcg/ml resveratrol induces an inhibition of NK activity.

human lymphocytes = assay: expression of surface antigens CD16, CD4 and CD95 in lymphocytes; assay type: cell-based; conditions: dose of 5 mcg/ml
Experimental: as §1
PBMC have been resuspended in a concentration of 1×10^6/ml and incubated for different periods of time with various doses of resveratrol. The cells have then been incubated with one or more fluorescent monoclonal antibodies, each being specific for a surface antigen (CD4, CD8, CD16 and CD95), and they have undergone a cytofluorometric analysis using a cytofluorometer FACscan (BD).
as §4

MT-2 cells = assay: cytotoxic activity of T lymphocytes (CTL), 51Cr release; assay type: cell-based, human; conditions: 5 days
Experimental: Mononucleated cells of human peripheral blood (PBMC) deriving from healthy subjects have been obtained by separation on gradient (Ficoll-Hypaque) of cells deriving from buffy coat. […] Mononucleated cells of human peripheral blood (PBMC) have been incubated with resveratrol in a concentration of 0.625, 1.25, 2.5, 5 and 10 mcg/ml in presence of MT-2 cells (line of human T cells deriving from blood of umbilical cord infected with HTLV1) for 5 days at 37° C. At the end of the incubation the cells have been tested for their cytotoxic activity against said MT-2 cells.

[8] = test system: PBMC activated with anti-CD3+ anti-CD28; assay: percentage of CD4+ and CD8+ T lymphocytes in activated PBMC; assay type: cell-based, human
Experimental: Mononucleated cells of human peripheral blood (PBMC) deriving from healthy subjects have been obtained by separation on gradient (Ficoll-Hypaque) of cells deriving from buffy coat. PBMC have been resuspended in a concentration of 1×10^6/ml and incubated for different periods of time with various doses of resveratrol.

platelet aggregation = conditions: cited from earlier work
cyclo-oxygenase = conditions: cited from earlier work
[9] = test system: line MCF-7 derived from mammary adenocarcinoma; conditions: in vitro; cited from earlier work
[10] = test system: line HL60 (human promyelocytic acute leukemia); conditions: cited from earlier work
[11] = test system: skin cancer induced by carcinogenic substances; conditions: in vivo, murine model of skin cancer; cited from earlier work

In the case of `Oc1ccc(/C=C\c2cc(O)cc(O)c2)cc1` [cis-resveratrol], the “halving time in culture medium” value [1] is reported as 38 h and the “amount still present at the end of the test” value [1] is reported as “about 25%”.

In the case of `Oc1ccc(C=Cc2cc(O)cc(O)c2)cc1` [resveratrol], the “percentage of CD8+ cells which can synthesize all tested cytokines” value ([2]; dose of 5 and more significantly 10 mcg/ml) is reported as “inhibition”, the “activity peak, CD8+ cells positive for IFN-γ” value ([2]; dose of peak stimulation, FIG. 1A) is reported as 1.25 to 2.5 µg/mL and the “activity peak, CD8+ cells positive for IL2” value ([2]; dose of peak stimulation, FIG. 1B) is reported as 0.625 µg/mL. The “activity peak, CD8+ cells positive for IL4” value ([2]; dose of peak stimulation, FIG. 1C) was 2.5 µg/mL, the “percentage of T cells CD8+ positive for intracellular IFN-γ, IL2 and IL4” value ([2]; dose range 0.625-2.5 mcg/ml, with respect to controls) was “significant increase” and the “peak of stimulating activity, CD4+ cells positive for IFN-γ” value ([3]; FIG. 2A) was 2.5 µg/mL. For the same compound, the “peak of stimulating activity, CD4+ cells positive for IL2” value ([3]; FIG. 2B) was 1.25 to 2.5 µg/mL, the “peak of stimulating activity, CD4+ cells positive for IL4” value ([3]; FIG. 2C) was 0.625 µg/mL and the cell proliferation ([4]; dose range of 2.5-10 mcg/ml, FIGS. 3A and 3B) was “dose-dependent inhibition”. For the same compound, the “number of treated cells” value ([4]; doses of 0.625 and 1.25 mcg/ml, FIG. 3A) was “statistically significant increase”, the “ability to synthesize DNA” value ([4]; doses of 0.625 and 1.25 mcg/ml, FIG. 3B) was “statistically significant increase” and the “percentage of apoptotic cells” value ([5]; dose range of 2.5-10 mcg/ml) was “dose-dependent increase”. The “apoptosis of activated cells” value ([5]; doses of 0.625 and 1.25 mcg/ml) was “does not have any effect”, the “mortality of activated cells” value ([6]; dose range of 2.5-10 mcg/ml) was “dose-dependent increase” and the “mortality of activated cells” value ([6]; doses of 0.625 and 1.25 mcg/ml) was “does not have any effect”. For the same compound, the NK activity ([7]; dose range of 0.625-5 mcg/ml) was “statistically significant increase”, the NK activity ([7]; doses of 10 and 20 mcg/ml) was “inhibition” and the “cells which can co-express CD16 and CD95 (CD16+/CD95+ cells)” value (human lymphocytes) was “significant increase”. The “percentage of CD4+/CD95+ cells” value (human lymphocytes) was “does not induce any variation”, the “cytotoxic activity of T lymphocytes” value (MT-2 cells; dose of 0.625 mcg/ml) was “increase” and the “number of blast cells” value (MT-2 cells; dose of 0.625 mcg/ml) was “increase”. For the same compound, the “cytotoxic activity of T lymphocytes” value (MT-2 cells; dose range of 2.5-10 mcg/ml) was “inhibition”, the “number of blast cells” value (MT-2 cells; dose range of 2.5-10 mcg/ml) was “inhibition” and the “percentage of CD4+ cells” value ([8]; all tested doses) was “does not induce any variation”. The “percentage of activated CD8+ cells” value ([8]; dose range of 2.5-10 mcg/ml) was “dose-dependent decrease” and the “percentage of activated CD8+ cells” value ([8]; lower doses (below 2.5 mcg/ml)) was “does not induce any variation”.

In the case of `Oc1ccc(/C=C/c2cc(O)cc(O)c2)cc1` [trans-resveratrol], the “halving time in culture medium” value [1] is listed as 28 h, the “amount still present at the end of the test” value [1] is listed as “not present as such” and the platelet aggregation (platelet aggregation) is listed as “inhibits”. The cyclo-oxygenase activity (cyclo-oxygenase) was “inhibits”, the “growth of MCF-7 cells” value [9] was “inhibit” and the “cellular cycle of HL60 cells” value [10] was “induce the stop of the cellular cycle in the transition from stage S to stage G2”. The “apoptosis of HL60 cells” value ([10]; high doses) was “induce apoptosis”, the “expression of CD95L in HL60 cells” value ([10]; high doses) was “regulate the expression of CD95L” and the tumor genesis [11] was “inhibit tumor genesis”.
